Data: patent EP3628659A1, “SELENOESTER-CONTAINING COMPOUNDS FOR USE IN THE TREATMENT OF MICROBIAL INFECTIONS OR COLORECTAL CANCER” (Consejo Superior De Investigaciones Científicas, priority 2018, dated 2020)

Experiments:
[1] = system: Colo 205 doxorubicin-sensitive; test: Cytotoxicity assay (MTT) in Colo 205 cells; assay type: cell-based, human; conditions: for IC50: Homo sapiens, COLO 205, 24 h, read-out: Colo 205 Cytotoxicity; for SI (MRC-5/Colo205): quotient of IC50 in MRC-5 and IC50 in Colo-205
Protocol: (§1) Cytotoxicity assays in human colonic adenocarcinoma cell lines Colo 205 doxorubicin-sensitive (ATCC-CCL-222) and Colo 320/MDR-LRP multidrug resistant overexpressing ABCB1 (MDR1)-LRP (ATCC-CCL-220.1) were performed following the procedure described by Gajdács et al, 2017, Bioorg Med Chem Lett. 27(4): 797-802. The effects of increasing concentrations of selenium compounds on cell growth were tested in 96-well flat-bottomed microtiter plates. The selectivity of the action towards cancer cells was assessed through the evaluation of cytotoxic activity in a non-tumoral cell line, the MRC-5 human embryonal lung fibroblast cell lines (ATCC CCL-171), as described in Gajdács et al, 2017, Bioorg Med Chem Lett. 27(4): 797-802.
(§2) All cell lines were purchased from LGC Promochem, Teddington, UK. The colonic cells were cultured in RPMI 1640 medium supplemented with 10% heat-inactivated fetal bovine serum, 2 mM L-glutamine, 1 mM Na-pyruvate and 100 mM Hepes. The cell lines were incubated at 37°C, in a 5% CO2, 95% air atmosphere. The semi-adherent human colon cancer cells were detached with Trypsin-Versene (EDTA) solution for 5 min at 37°C. Alternatively, MRC-5 cells was cultured in Eagle's Minimal Essential Medium (EMEM, containing 4.5 g/L glucose) supplemented with a non-essential amino acid mixture, a selection of vitamins and 10% heat-inactivated fetal bovine serum. The cell lines were incubated at 37°C, in a 5% CO2, 95% air atmosphere.
(§3) The compounds were diluted in a volume of 100 µL of medium. The two-fold serial dilutions of selenocompounds were prepared in 100 µL of RPMI 1640, horizontally. The semi-adherent colonic adenocarcinoma cells were treated with Trypsin-Versene (EDTA) solution. They were adjusted to a density of 2×10^4 cells in 100 µL of RPMI 1640 medium, and were added to each well, with the exception of the medium control wells. The final volume of the wells containing selenocompounds and cells was 200 µL.
(§4) The culture plates were incubated at 37°C for 24 h; at the end of the incubation period, 20 µL of MTT (thiazolyl blue tetrazolium bromide, Sigma) solution (from a stock solution of 5 mg/mL) were added to each well. After incubation at 37°C for 4 h, 100 µL of sodium dodecyl sulfate (SDS) (Sigma) solution (10% in 0.01 M HCI) were added to each well and the plates were further incubated at 37°C overnight. Cell growth was determined by measuring the optical density (OD) at 540/630 nm with Multiscan EX ELISA reader (Thermo Labsystems, Cheshire, WA, USA). Inhibition of the cell growth was determined according to the formula below: […] = 100−[(OD sample−OD medium control)/(OD cell control−OD medium control)] × 100 [formula]
(§5) Results are expressed in terms of IC50, defined as the inhibitory dose that reduces the growth of the cells exposed to the tested compounds by 50%. Regarding the selectivity, the selectivity indexes (SI) were calculate, being SI the quotient of the IC50 in non-tumoral cells (MRC-5) and the respective cancer cell (Colo-205 or Colo-320). Compound is considered moderately selective when SI < 6 and ≥ 3; and strongly selective when SI ≥ 6.

[2] = system: Colo 320/MDR-LRP multidrug resistant overexpressing ABCB1 (MDR1)-LRP; test: cells; assay type: cell-based, human; conditions: for IC50: Homo sapiens, 24 h, read-out: Colo 320 Cytotoxicity; for SI (MRC-5/Colo320): quotient of IC50 in MRC-5 and IC50 in Colo-320
Protocol: as §1, §2, §3, §4, §5

[3] = Cytotoxicity assay (MTT) in non-tumoral MRC-5 cells; assay type: cell-based; conditions: human, IC50 class, non-tumoral cell line; for IC50 at 24 h: MRC-5 embryonal lung fibroblast cells (non-tumoral)
Protocol: as §1, §2, §3, §4, §5

ABCB1 efflux pump = molecular target: T1, ABCB1 efflux pump (Homo sapiens, UniProt P08183); test: Rhodamine 123 assay of inhibition of MDR efflux pumps (flow cytometry); assay type: cell-based; conditions: Quotient = 100 × FARcompound/FARverapamil, verapamil 20 µM, Colo 320 vs Colo 205; for Inhibition of efflux pumps At 2 µM concentration: compound 2 µM; for Inhibition of efflux pumps At 20 µM concentration: compound 20 µM
T1 construct: The colonic adenocarcinoma cells (the doxorubicin-sensitive Colo 205 and the multidrug resistant Colo 320); host or cells: Colo 320/MDR-LRP (multidrug resistant), with Colo 205 (ATCC-CCL-222) as the sensitive parental comparator
T1 sequence (P08183 whole entry): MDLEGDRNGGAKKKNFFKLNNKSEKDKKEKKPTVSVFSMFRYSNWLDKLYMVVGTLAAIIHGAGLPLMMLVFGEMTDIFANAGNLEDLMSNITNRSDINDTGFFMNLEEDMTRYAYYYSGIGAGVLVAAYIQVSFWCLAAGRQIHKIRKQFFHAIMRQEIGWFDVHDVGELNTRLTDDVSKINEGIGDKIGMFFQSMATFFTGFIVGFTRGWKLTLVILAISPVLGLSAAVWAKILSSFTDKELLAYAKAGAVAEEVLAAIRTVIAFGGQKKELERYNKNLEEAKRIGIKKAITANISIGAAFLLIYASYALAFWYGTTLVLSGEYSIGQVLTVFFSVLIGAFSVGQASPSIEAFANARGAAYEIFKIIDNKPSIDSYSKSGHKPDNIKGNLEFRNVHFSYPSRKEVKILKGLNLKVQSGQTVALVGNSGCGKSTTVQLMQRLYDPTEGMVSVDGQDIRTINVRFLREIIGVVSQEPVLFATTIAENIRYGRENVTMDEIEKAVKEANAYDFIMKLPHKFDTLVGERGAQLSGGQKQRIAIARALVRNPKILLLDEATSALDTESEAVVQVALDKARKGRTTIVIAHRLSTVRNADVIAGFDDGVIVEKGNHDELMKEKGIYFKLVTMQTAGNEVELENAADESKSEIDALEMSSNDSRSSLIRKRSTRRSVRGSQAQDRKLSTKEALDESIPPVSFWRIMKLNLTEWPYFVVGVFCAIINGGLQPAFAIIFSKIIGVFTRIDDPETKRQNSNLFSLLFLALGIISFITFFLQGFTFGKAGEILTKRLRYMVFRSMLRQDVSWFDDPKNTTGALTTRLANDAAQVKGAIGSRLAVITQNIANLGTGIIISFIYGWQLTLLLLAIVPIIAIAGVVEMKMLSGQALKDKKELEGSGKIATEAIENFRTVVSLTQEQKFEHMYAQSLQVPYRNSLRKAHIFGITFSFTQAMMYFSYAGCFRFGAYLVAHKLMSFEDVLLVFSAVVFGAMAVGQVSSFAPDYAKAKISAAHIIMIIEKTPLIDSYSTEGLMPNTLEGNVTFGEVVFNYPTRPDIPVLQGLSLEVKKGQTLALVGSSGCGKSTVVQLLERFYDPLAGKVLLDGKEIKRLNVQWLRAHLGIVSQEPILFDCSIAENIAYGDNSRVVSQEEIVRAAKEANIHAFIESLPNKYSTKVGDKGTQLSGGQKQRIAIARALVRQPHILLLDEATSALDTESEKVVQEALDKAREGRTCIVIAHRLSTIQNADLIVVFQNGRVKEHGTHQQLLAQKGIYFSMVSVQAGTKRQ
Protocol: This method, described in Gajdács et al, 2017, Bioorg Med Chem Lett. 27(4): 797-802, is a fluorescence-based detection system which uses verapamil as reference inhibitor of the ABCB1 efflux pump. The colonic adenocarcinoma cells (the doxorubicin-sensitive Colo 205 and the multidrug resistant Colo 320) were adjusted to a density of 2×10^6/mL, re-suspended in serum-free RPMI 1640 medium and distributed in 0.5 mL aliquots into Eppendorf centrifuge tubes. Selenocompounds (1 and 10 µL from a stock solution of 1 mM, respectively) were added at different concentrations (2 µM and 20 µM final concentrations, respectively), and the samples were incubated for 10 min at room temperature. Next, 10 µL (5.2 µM final concentration) of rhodamine 123 was added to the samples and the cells were incubated for 20 minutes at 37°C, washed twice with phosphate buffered saline (PBS) and re-suspended in 1 mL PBS for analysis. The fluorescence intensity of the cell population was measured with a Partec CyFlow flow cytometer (Partec, Munster, Germany). Verapamil was used as a positive control at 20 µM final concentration in the rhodamine 123 exclusion experiments. The mean fluorescence intensity (%) was calculated for the treated multidrug resistance (MRD) Colo 320 and sensitive Colo 205 cell lines as compared to the untreated cells. The fluorescence activity ratio (FAR) was calculated based on the following equation which relates the measured fluorescence values: FAR = (MDRtreated /MDRcontrol)/(parentaltreated /parentalcontrol); Quotient = 100 × (FARcompound/FARverapamil) [formula]

[4] = system: Staphylococcus aureus 25923 ATCC; test: MIC determination (CLSI), S. aureus 25923 ATCC; assay type: cell-based; conditions: MIC class
Protocol: (§6) The effects exerted by different concentrations of the compounds on bacterial growth in Staphylococcus aureus 25923 ATCC, Staphylococcus aureus multidrug resistant 272123 clinical isolate (MRSA), Escherichia coli AG100 or Escherichia coli AG100 A were tested in 96-well plates. The MIC of selenocompounds was determined according to Clinical and Laboratory Standard Institute (CLSI) guidelines. The solvent used (DMSO) had no antibacterial effect. Alternatively, the MICs of oxacillin of the compounds in MRSA HEMSA 5 were determined by a broth microdilution method in cation-adjusted Mueller-Hinton Broth (MHB II) according to the recommendations of the CLSI. Results were recorded after a 20- or 24-hour incubation at 37°C.

[5] = system: Staphylococcus aureus multidrug resistant 272123 clinical isolate (MRSA); assay type: cell-based; conditions: MIC class
Protocol: as §6

| SMILES | IC50 [1] | SI (MRC-5/Colo205) [1] | IC50 [2] | SI (MRC-5/Colo320) [2] | IC50 at 24 h [3] | Inhibition of efflux pumps At 2 µM concentration (ABCB1 efflux pump) | Inhibition of efflux pumps At 20 µM concentration (ABCB1 efflux pump) | Antibacterial activity Against S. aureus 25923 ATCC [4] | Antibacterial activity Against S. aureus MRSA 272123 [5] | CC50 ([3]; mrc-5 cells) |
| --- | --- | --- | --- | --- | --- | --- | --- | --- | --- | --- |
| CC(=O)C[Se]C(=O)c1cc(C(=O)[Se]CC(C)=O)cc(C(=O)[Se]CC(C)=O)c1 [Compound 24, Se,Se,Se-tris-(2-oxopropyl) benzene-1,3,5-tris-(carboxyselenoate)] | < 1 µM | * (Slightly selective compounds: 1 ≤ SI < 3) | < 1 µM | * (Slightly selective compounds: 1 ≤ SI < 3) | < 1 µM | *** (Very potent inhibitors of MDR efflux pumps: Quotient ≥ 200% (≥ 2-fold more potent than reference verapamil)) | *** (Very potent inhibitors of MDR efflux pumps: Quotient ≥ 200% (≥ 2-fold more potent than reference verapamil)) | **** (Very potent antibacterial compounds: MIC ≤ 1 µM) | **** (Very potent antibacterial compounds: MIC ≤ 1 µM) | – |
| N#CC[Se]C(=O)c1cc(C(=O)[Se]CC#N)cc(C(=O)[Se]CC#N)c1 [Compound 20, Se,Se,Se-tris-(cyanomethyl) benzene-1,3,5-tris-(carboxyselenoate)] | < 1 µM | *** (Strongly selective compounds: SI ≥ 6) | 1 to 10 µM | *** (Strongly selective compounds: SI ≥ 6) | > 50 µM | ** (Potent inhibitors of MDR efflux pumps: 100% ≤ Quotient < 200% (from 1- to 2-fold more potent than reference verapamil)) | ** (Potent inhibitors of MDR efflux pumps: 100% ≤ Quotient < 200% (from 1- to 2-fold more potent than reference verapamil)) | – | – | – |
| CC(=O)C[Se]C(=O)c1cccc(C(=O)[Se]CC(C)=O)c1 [Compound 23, Se,Se-bis-(2-oxopropyl) benzene-1,3-bis-(carboselenoate)] | < 1 µM | * (Slightly selective compounds: 1 ≤ SI < 3) | < 1 µM | * (Slightly selective compounds: 1 ≤ SI < 3) | 1 to 10 µM | *** (Very potent inhibitors of MDR efflux pumps: Quotient ≥ 200% (≥ 2-fold more potent than reference verapamil)) | *** (Very potent inhibitors of MDR efflux pumps: Quotient ≥ 200% (≥ 2-fold more potent than reference verapamil)) | **** (Very potent antibacterial compounds: MIC ≤ 1 µM) | *** (Potent antibacterial compounds: 1 µM < MIC ≤ 10 µM) | – |
| N#CC[Se]C(=O)c1cccc(C(=O)[Se]CC#N)c1 [Compound 19, Se,Se-bis-(cyanomethyl)benzene-1,3-bis-(carboselenoate)] | 1 to 10 µM | *** (Strongly selective compounds: SI ≥ 6) | 1 to 10 µM | *** (Strongly selective compounds: SI ≥ 6) | – | ** (Potent inhibitors of MDR efflux pumps: 100% ≤ Quotient < 200% (from 1- to 2-fold more potent than reference verapamil)) | ** (Potent inhibitors of MDR efflux pumps: 100% ≤ Quotient < 200% (from 1- to 2-fold more potent than reference verapamil)) | *** (Potent antibacterial compounds: 1 µM < MIC ≤ 10 µM) | ** (Moderate antibacterial compounds: 10 µM < MIC ≤ 50 µM) | > 50 µM |
| N#CC[Se]C(=O)c1ccc(C(=O)[Se]CC#N)cc1 [Compound 18, Se,Se-bis-(cyanomethyl) benzene-1,4-bis-(carboselenoate)] | 1 to 10 µM | *** (Strongly selective compounds: SI ≥ 6) | 1 to 10 µM | *** (Strongly selective compounds: SI ≥ 6) | > 50 µM | ** (Potent inhibitors of MDR efflux pumps: 100% ≤ Quotient < 200% (from 1- to 2-fold more potent than reference verapamil)) | ** (Potent inhibitors of MDR efflux pumps: 100% ≤ Quotient < 200% (from 1- to 2-fold more potent than reference verapamil)) | *** (Potent antibacterial compounds: 1 µM < MIC ≤ 10 µM) | ** (Moderate antibacterial compounds: 10 µM < MIC ≤ 50 µM) | – |
| CC(=O)C[Se]C(=O)c1ccc(C(=O)[Se]CC(C)=O)cc1 [Compound 22, Se,Se-bis-(2-oxopropyl) benzene-1,4-bis-(carboselenoate)] | < 1 µM | * (Slightly selective compounds: 1 ≤ SI < 3) | < 1 µM | * (Slightly selective compounds: 1 ≤ SI < 3) | < 1 µM | *** (Very potent inhibitors of MDR efflux pumps: Quotient ≥ 200% (≥ 2-fold more potent than reference verapamil)) | *** (Very potent inhibitors of MDR efflux pumps: Quotient ≥ 200% (≥ 2-fold more potent than reference verapamil)) | **** (Very potent antibacterial compounds: MIC ≤ 1 µM) | *** (Potent antibacterial compounds: 1 µM < MIC ≤ 10 µM) | – |
